Measured values: PubChem BioAssay (NCI)
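Five concentrations, 48 hours, 96-well plates. Abbreviation: GI50, concentration required for 50% inhibition of growth. The concentration for full growth arrest is given as TGI.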

What was measured:
Experiment in all cases: DTP human tumour cell line panel, 48 h
HL-60(TB) leukemia = system: HL-60(TB) leukemia
HCT-15 colon = system: HCT-15 colon
SR leukemia = system: SR leukemia
CCRF-CEM leukemia = system: CCRF-CEM leukemia
SF-268 CNS = system: SF-268 CNS
DU-145 prostate = system: DU-145 prostate
HOP-62 NSCLC = system: HOP-62 NSCLC
SNB-19 CNS = system: SNB-19 CNS
SK-MEL-5 melanoma = system: SK-MEL-5 melanoma
OVCAR-5 ovarian = system: OVCAR-5 ovarian
SF-295 CNS = system: SF-295 CNS
U251 CNS = system: U251 CNS
COLO 205 colon = system: COLO 205 colon
NCI-H522 lung = system: NCI-H522 lung
UO-31 renal = system: UO-31 renal
SK-MEL-2 melanoma = system: SK-MEL-2 melanoma
EKVX NSCLC = system: EKVX NSCLC
OVCAR-4 ovarian = system: OVCAR-4 ovarian
UACC-62 melanoma = system: UACC-62 melanoma
A549 NSCLC = system: A549 NSCLC
SF-539 CNS = system: SF-539 CNS
A498 renal = system: A498 renal
MOLT-4 leukemia = system: MOLT-4 leukemia
NCI/ADR-RES ovarian = system: NCI/ADR-RES ovarian
CAKI-1 renal = system: CAKI-1 renal
HOP-92 NSCLC = system: HOP-92 NSCLC
NCI-H23 lung = system: NCI-H23 lung
RXF 393 renal = system: RXF 393 renal
KM12 colon = system: KM12 colon
SK-OV-3 ovarian = system: SK-OV-3 ovarian
BT-549 breast = system: BT-549 breast
SW-620 colon = system: SW-620 colon
T-47D breast = system: T-47D breast
PC-3 prostate = system: PC-3 prostate
K-562 leukemia = system: K-562 leukemia
OVCAR-8 ovarian = system: OVCAR-8 ovarian
TK-10 renal = system: TK-10 renal
MALME-3M melanoma = system: MALME-3M melanoma
SNB-75 CNS = system: SNB-75 CNS
MCF7 breast = system: MCF7 breast
MDA-MB-435 = system: MDA-MB-435
HT29 colon = system: HT29 colon
UACC-257 melanoma = system: UACC-257 melanoma
SN12C renal = system: SN12C renal
OVCAR-3 ovarian = system: OVCAR-3 ovarian
M14 melanoma = system: M14 melanoma
SK-MEL-28 melanoma = system: SK-MEL-28 melanoma
NCI-H226 lung = system: NCI-H226 lung
MDA-MB-231 breast = system: MDA-MB-231 breast
HCC-2998 colon = system: HCC-2998 colon
HS 578T breast = system: HS 578T breast
IGROV1 ovarian = system: IGROV1 ovarian
ACHN renal = system: ACHN renal
NCI-H460 lung = system: NCI-H460 lung
LOX IMVI melanoma = system: LOX IMVI melanoma
RPMI-8226 leukemia = system: RPMI-8226 leukemia
HCT-116 colon = system: HCT-116 colon
786-0 renal = system: 786-0 renal

SMILES: NC(=O)c1ncn2c1CNC(=O)C2
- TGI (HL-60(TB) leukemia): > 100 µM
- TGI (HCT-15 colon): > 100 µM
- TGI (SR leukemia): > 100 µM
- TGI (CCRF-CEM leukemia): > 100 µM
- TGI (SF-268 CNS): > 100 µM
- TGI (DU-145 prostate): > 100 µM
- TGI (HOP-62 NSCLC): > 100 µM
- TGI (SNB-19 CNS): > 100 µM
- TGI (SK-MEL-5 melanoma): > 100 µM
- TGI (OVCAR-5 ovarian): > 100 µM
- TGI (SF-295 CNS): > 100 µM
- TGI (U251 CNS): > 100 µM
- TGI (COLO 205 colon): > 100 µM
- TGI (NCI-H522 lung): > 100 µM
- TGI (UO-31 renal): > 100 µM
- TGI (SK-MEL-2 melanoma): > 100 µM
- TGI (EKVX NSCLC): > 100 µM
- TGI (OVCAR-4 ovarian): > 100 µM
- TGI (UACC-62 melanoma): > 100 µM
- TGI (A549 NSCLC): > 100 µM
- TGI (SF-539 CNS): > 100 µM
- TGI (A498 renal): > 100 µM
- TGI (MOLT-4 leukemia): > 100 µM
- TGI (NCI/ADR-RES ovarian): > 100 µM
- TGI (CAKI-1 renal): > 100 µM
- TGI (HOP-92 NSCLC): > 100 µM
- TGI (NCI-H23 lung): > 100 µM
- TGI (RXF 393 renal): > 100 µM
- TGI (KM12 colon): > 100 µM
- TGI (SK-OV-3 ovarian): > 100 µM
- TGI (BT-549 breast): > 100 µM
- TGI (SW-620 colon): > 100 µM
- TGI (T-47D breast): > 100 µM
- TGI (PC-3 prostate): > 100 µM
- TGI (K-562 leukemia): > 100 µM
- TGI (OVCAR-8 ovarian): > 100 µM
- TGI (TK-10 renal): > 100 µM
- TGI (MALME-3M melanoma): > 100 µM
- TGI (SNB-75 CNS): > 100 µM
- TGI (MCF7 breast): > 100 µM
- TGI (MDA-MB-435): > 100 µM
- TGI (HT29 colon): > 100 µM
- TGI (UACC-257 melanoma): > 100 µM
- TGI (SN12C renal): > 100 µM
- TGI (OVCAR-3 ovarian): > 100 µM
- TGI (M14 melanoma): > 100 µM
- TGI (SK-MEL-28 melanoma): > 100 µM
- TGI (NCI-H226 lung): > 100 µM
- TGI (MDA-MB-231 breast): > 100 µM
- TGI (HCC-2998 colon): > 100 µM
- TGI (HS 578T breast): > 100 µM
- TGI (IGROV1 ovarian): > 100 µM
- TGI (ACHN renal): > 100 µM
- TGI (NCI-H460 lung): > 100 µM

SMILES: CCOC(=O)c1ccc2c(c1)nc(-c1ccc(Cl)cc1)n2-c1cc(C(C)(C)C)[nH]n1
- GI50 (HL-60(TB) leukemia): 3.65 µM
- TGI (HL-60(TB) leukemia): 9.2 µM
- GI50 (HCT-15 colon): 3.27 µM
- TGI (HCT-15 colon): > 100 µM
- GI50 (SR leukemia): 0.635 µM
- TGI (SR leukemia): 8.16 µM
- GI50 (LOX IMVI melanoma): 2.73 µM
- TGI (LOX IMVI melanoma): 10.8 µM
- GI50 (CCRF-CEM leukemia): 3.06 µM
- TGI (CCRF-CEM leukemia): 34.1 µM
- GI50 (SF-268 CNS): 3.13 µM
- TGI (SF-268 CNS): 13.8 µM
- GI50 (DU-145 prostate): 2.85 µM
- GI50 (HOP-62 NSCLC): 3.69 µM
- TGI (HOP-62 NSCLC): > 100 µM
- GI50 (SNB-19 CNS): 3.32 µM
- TGI (SNB-19 CNS): > 100 µM
- GI50 (SK-MEL-5 melanoma): 1.33 µM
- TGI (SK-MEL-5 melanoma): 3.39 µM
- GI50 (OVCAR-5 ovarian): 3.68 µM
- TGI (OVCAR-5 ovarian): > 100 µM
- GI50 (SF-295 CNS): 2.62 µM
- TGI (SF-295 CNS): 11.4 µM
- GI50 (U251 CNS): 3.04 µM
- TGI (U251 CNS): > 100 µM
- GI50 (COLO 205 colon): 2.23 µM
- TGI (COLO 205 colon): 4.75 µM
- GI50 (NCI-H522 lung): 2.52 µM
- TGI (NCI-H522 lung): 6.66 µM
- GI50 (UO-31 renal): 2.76 µM
- TGI (UO-31 renal): 45.7 µM
- GI50 (SK-MEL-2 melanoma): 1.93 µM
- TGI (SK-MEL-2 melanoma): 4.4 µM
- GI50 (EKVX NSCLC): 3.02 µM
- TGI (EKVX NSCLC): > 100 µM
- GI50 (OVCAR-4 ovarian): 3.64 µM
- TGI (OVCAR-4 ovarian): > 100 µM
- GI50 (UACC-62 melanoma): 1.67 µM
- TGI (UACC-62 melanoma): 4 µM
- GI50 (A549 NSCLC): 3.13 µM
- TGI (A549 NSCLC): > 100 µM
- GI50 (SF-539 CNS): 2.16 µM
- TGI (SF-539 CNS): 4.99 µM
- GI50 (A498 renal): 2.19 µM
- TGI (A498 renal): 6.51 µM
- GI50 (MOLT-4 leukemia): 3.28 µM
- TGI (MOLT-4 leukemia): 30.4 µM
- GI50 (NCI/ADR-RES ovarian): 2.13 µM
- TGI (NCI/ADR-RES ovarian): 6.65 µM
- GI50 (CAKI-1 renal): 2.77 µM
- TGI (CAKI-1 renal): > 100 µM
- GI50 (HOP-92 NSCLC): 1.02 µM
- TGI (HOP-92 NSCLC): 4.79 µM
- GI50 (NCI-H23 lung): 2.72 µM
- TGI (NCI-H23 lung): > 100 µM
- GI50 (RXF 393 renal): 1.81 µM
- TGI (RXF 393 renal): 5.87 µM
- GI50 (KM12 colon): 2.78 µM
- TGI (KM12 colon): 14.2 µM
- GI50 (SK-OV-3 ovarian): 3.43 µM
- TGI (SK-OV-3 ovarian): 36.9 µM
- GI50 (BT-549 breast): 2.88 µM
- TGI (BT-549 breast): 8.4 µM
- GI50 (T-47D breast): 3.78 µM
- TGI (T-47D breast): > 100 µM
- GI50 (PC-3 prostate): 2.82 µM
- TGI (PC-3 prostate): > 100 µM
- GI50 (K-562 leukemia): 2.72 µM
- TGI (K-562 leukemia): 16.1 µM
- GI50 (OVCAR-8 ovarian): 2.55 µM
- TGI (OVCAR-8 ovarian): 12.7 µM
- GI50 (TK-10 renal): 3.62 µM
- TGI (TK-10 renal): > 100 µM
- GI50 (MALME-3M melanoma): 2.75 µM
- TGI (MALME-3M melanoma): 9.18 µM
- GI50 (SNB-75 CNS): 2.53 µM
- TGI (SNB-75 CNS): > 100 µM
- GI50 (MCF7 breast): 2.78 µM
- TGI (MCF7 breast): 12.2 µM
- GI50 (MDA-MB-435): 0.717 µM
- TGI (MDA-MB-435): 7.1 µM
- GI50 (RPMI-8226 leukemia): 2.99 µM
- TGI (RPMI-8226 leukemia): 22.9 µM
- GI50 (HT29 colon): 2.79 µM
- TGI (HT29 colon): 7.17 µM
- GI50 (UACC-257 melanoma): 3.41 µM
- TGI (UACC-257 melanoma): > 100 µM
- GI50 (SN12C renal): 3.33 µM
- TGI (SN12C renal): 40.6 µM
- GI50 (OVCAR-3 ovarian): 2.05 µM
- TGI (OVCAR-3 ovarian): 5.65 µM
- GI50 (SK-MEL-28 melanoma): 2.49 µM
- TGI (SK-MEL-28 melanoma): 12.2 µM
- GI50 (MDA-MB-231 breast): 4.2 µM
- TGI (MDA-MB-231 breast): 40.8 µM
- GI50 (HCT-116 colon): 3.12 µM
- TGI (HCT-116 colon): 29.9 µM
- GI50 (786-0 renal): 3.17 µM
- TGI (786-0 renal): > 100 µM
- GI50 (HCC-2998 colon): 3.03 µM
- TGI (HCC-2998 colon): 16.2 µM
- GI50 (HS 578T breast): 2.76 µM
- TGI (HS 578T breast): 8.57 µM
- GI50 (IGROV1 ovarian): 3.77 µM
- TGI (IGROV1 ovarian): > 100 µM
- GI50 (ACHN renal): 3.28 µM
- TGI (ACHN renal): 10.1 µM
- GI50 (NCI-H460 lung): 2.94 µM
- TGI (NCI-H460 lung): 8.02 µM
